Measured values reported in patent US20260345555A1, “Compositions and Methods for Protecting Salivary Glands from Off-Target Radiation Damage” (University of Rochester, priority 2022, published 2026).
Structures can show the parent of a compound that is named as a salt. Where two headings read alike, the source gives them in different places.

Tests used:
[1] = tested on: Reduced glutathione in salivary gland cell clusters (SGm); test: Glutathione assay in salivary gland tissue chip, 4 days post-radiation (15 Gy); also first screen of Selleck library at 100 μM; format: cell-based, mouse; conditions: for hit in the drug screen: glutathione assay first screen, 100 μM; for Glutathione normalized mean intensity: first screen of Selleck library at 100 μM; for Estimated EC50, Glutathione: nonlinear fit in Prism of dose response curves; on Glutathione (radioprotection): key: +: radioprotection; ~: partial radioprotection; —: no radioprotection
Text: (§1) A salivary gland tissue chip was leveraged for high-content drug screening to identify novel radioprotective compounds (Song Y et al., Commun Biol., 2021, 4). The chip platform consists of an array of near-spherical microbubble (MB) cavities formed in poly(dimethylsiloxane) (PDMS). Each chip, containing ~50 MBs, affixed within wells of a 96-well plate (FIG. 1C). Primary salivary gland cell clusters (FIG. 1A), suspended in a poly(ethylene glycol) (PEG) hydrogel precursor and MMP-degradable peptide crosslinker solution together with the photoinitiator LAP, were applied to the chip allowing the clusters to deposit into the MBs (FIG. 1D). In situ polymerization of the hydrogel was achieved using long-wave, low intensity UV light. Over time, the cell clusters aggregate and proliferate to form SGm (FIG. 1C).
The glutathione assay was used to measure glutathione levels at various time points post-radiation to determine the optimal time point for detecting differences between 0 Gy and 15 Gy. Based on the data, the greatest signal separation was measured at 4 days post-irradiation (FIG. 9). This timepoint is similar to previous reports on decreases in glutathione post-radiation and was used for all experiments moving forward (Meeks L et al., Physiological Genomics, 2021, 53: 85-98).
The dose response to WR-1065 was examined to determine effective concentrations of WR-1065 to prevent the reduction of glutathione levels post-radiation. A SGm tissue chip was cultured for 4 days to allow spheres to form. The chip was then treated with WR-1065 30 minutes before and during radiation, followed by drug wash out with media 30 minutes post-radiation (FIG. 2A). This dosing scheme is consistent with the use of Amifostine clinically and with previous work. The glutathione assay was performed at 4 days post-radiation (FIG. 2A). […] Moreover, it is clinically relevant as 15-30 minutes before radiation, patients are administered Amifostine intravenously at 200 mg/m (Escobar A et al., IntechOpen, 2019, pp. 15-37; Eisbruch A, J Clin Oncol, 2011, 29: 119-121; Bardet, E. et al. Semin Oncol, 2002, 29, 57-60). Assuming an average adult body surface area of 17,000 cm^2 and a blood volume of 1.35 gallons (5.1 liters), Amifostine is administered at 300 μM (Mosteller, R. D. N Engl J Med 317, 1098 (1987)).
The glutathione and senescence assays were used to screen a library of FDA-approved drugs (Selleck Chemicals) at 100 μM. Drugs were first screened using the glutathione assay according to the timeline depicted in FIG. 2A. Any compound resulting in statistically similar glutathione levels compared to 0 Gy control was considered a hit (FIG. 4, grey circles). Hits with the glutathione assay were then tested with the senescence assay and considered a “double hit” if senescence levels were statistically similar to levels at 0 Gy (FIG. 4, black circles). […] While this hit rate is higher than many other drug screening reports (0.1-0.3%), this may be due to the statistical rigor afforded by the tissue chip format (Blanchard, C et al., Antimicrob Agents Chemother 2016, 60, 862-872; Colquhoun, J. M et al., Antibiotics (Basel) 2019, 8, 48). Additionally, phenotypic screens generally have higher hit rates than target-based screens (>1%) (Moffat, J. G et al., Nature Reviews Drug Discovery 2017, 16, 531-543; Rottman, M et al., Science 2010, 329, 1175-1180).
Mice were euthanized and the submandibular glands (SMG) were removed and chopped with a razor blade for 5 min. The tissue was then incubated in Hank's buffered salt solution (HBSS) containing 15 mM HEPES, 50 U/mL collagenase type II (Thermo Fischer 17101015), and 100 U/mL hyaluronidase (Sigma Aldrich H3506) at 37 °C for 30 min. Cells were centrifuged, then resuspended in HBSS with 15 mM HEPES and passed through 100 μm and 20 μm mesh filters to isolate clusters between 20-100 μm. The digestion protocol produces cell cluster sizes evenly distributed between 20 to 100 μm (Song, Y et al., Advanced Healthcare Materials). […]

[2] = tested on: lymphocyte cells; conditions: viability of lymphocytes as primary readout; cited from earlier work
[3] = tested on: senescence-associated β-galactosidase in salivary gland cell clusters (SGm); test: Cellular senescence assay (SPiDER-βGal) in salivary gland tissue chip, 5 days post-radiation (15 Gy); also second screen of library hits at 100 μM; format: cell-based, mouse; conditions: for Senescence normalized mean intensity: second screen of library hits at 100 μM, 5 days post-radiation, only drugs nonsignificant compared to 0 Gy in the glutathione assay; on Senescence (radioprotection): key: +: radioprotection; ~: partial radioprotection; —: no radioprotection
Text: as §1, with “The” for “A salivary gland tissue chip was leveraged for high-content drug screening to identify novel radioprotective compounds (Song Y et al., Commun Biol., 2021, 4). The”
For senescence, a protocol similar to the glutathione assay was followed to determine the optimal time point post-radiation for detecting a change in senescence between 0 Gy and 15 Gy, as measured by senescence-associated β-galactosidase activity.
The glutathione and senescence assays were used to screen a library of FDA-approved drugs (Selleck Chemicals) at 100 μM. Drugs were first screened using the glutathione assay according to the timeline depicted in FIG. 2A. […] Hits with the glutathione assay were then tested with the senescence assay and considered a “double hit” if senescence levels were statistically similar to levels at 0 Gy (FIG. 4, black circles).
Mice were euthanized and the submandibular glands (SMG) were removed and chopped with a razor blade for 5 min. […] Cells were centrifuged, then resuspended in HBSS with 15 mM HEPES and passed through 100 μm and 20 μm mesh filters to isolate clusters between 20-100 μm. […] The isolated clusters were combined with hydrogel precursor solution and seeded in MB array-based chips as described below.
The cell/gel precursor solution (25 μL for 48 well; 20 μL for 96 well) was pipetted onto the MB chips and incubated for 30 min, pipetting every 10 min to redisperse cells that had settled onto the surface of the chip.
A cellular senescence assay for the chips was developed by adapting the Cellular Senescence Detection Kit—SPiDER-βGal (Dojindo Molecular Technologies, Inc. SG04). Bafilomycin A1 and SPiDER-βGal stock solutions were prepared in DMSO per manufacturer directions. The assay was performed by first incubating the chips with bafilomycin A1 (1:1000 dilution in media) for 1 hr at 37 °C. […] Chips were washed twice with media and imaged using a fluorescence microscope with a Texas Red filter (Excitation: 580 nm; Emission: 604 nm).
For radioprotection experiments, SGm were cultured in MB-hydrogel chips for 4 days, then drugs were added to the chips 30 min prior to irradiation and washed out with media 30 min post-radiation treatment. […] The glutathione and senescence assays were performed at 4- and 5-days post-radiation. For assay validation experiments, at least 3 chips (N=3) were used for each drug, corresponding to >100 MBs (n>100); these values are listed in the figure description for each experiment. Mean, standard deviation, and statistics were calculated based on the number of MBs (n).
For screening of the Selleck Chemicals compound library, the same treatment scheme was used, with drugs administered at 100 μM. One MB chip (N=1) was used per compound, with ~40-50 MBs per chip […]; statistics were calculated using the number of MBs (n) and compared to 0 Gy controls.
For both the glutathione and cellular senescence assays, images were quantified in ImageJ.

[4] = Mus musculus, light or radiation study, 120 h, read-out: reduction in senescence

COc1c(N2CCNC(C)C2)c(F)cc2c(=O)c(C(=O)O)cn(C3CC3)c12 (stereo not drawn) [gatifloxacin]
hit in the drug screen [1]: not hits | radioprotection of lymphocytes [2]: radioprotectors

C[C@H](CCC(=O)O)[C@H]1CC[C@H]2[C@@H]3[C@H](O)C[C@@H]4C[C@H](O)CC[C@]4(C)[C@H]3CC[C@]12C [Chenodeoxycholic acid]
Senescence normalized mean intensity ([3]; 15 Gy): 1.45 | Glutathione normalized mean intensity ([1]; 15 Gy, 4 days post-radiation): 1.11

NC(N)=NC(=O)c1nc(Cl)c(N)nc1N [Amiloride hydrochloride (Midamor)]
Senescence normalized mean intensity ([3]; 15 Gy): 1.487 | Glutathione normalized mean intensity ([1]; 15 Gy, 4 days post-radiation): 1.018

COc1cc(/C=C/C(=O)CC(=O)/C=C/c2ccc(O)c(OC)c2)ccc1O [Curcumin]
Senescence normalized mean intensity ([3]; 15 Gy): 0.8098 | Glutathione normalized mean intensity ([1]; 15 Gy, 4 days post-radiation): 0.9059

CC(=O)OCC[N+](C)(C)C.[Cl-] [Acetylcholine chloride]
Senescence normalized mean intensity ([3]; 15 Gy): 1.205 | Glutathione normalized mean intensity ([1]; 15 Gy, 4 days post-radiation): 1.04

CCOC(=O)C(C)(C)Oc1ccc(Cl)cc1 [Clofibrate (Atromid-S)]
Senescence normalized mean intensity ([3]; 15 Gy): 1.714 | Glutathione normalized mean intensity ([1]; 15 Gy, 4 days post-radiation): 1.009

C[C@H]1COc2c(N3CCN(C)CC3)c(F)cc3c(=O)c(C(=O)O)cn1c23 [levofloxacin]
hit in the drug screen [1]: not hits | radioprotection of lymphocytes [2]: radioprotectors

Cc1cnc(C(=O)NCCc2ccc(S(=O)(=O)NC(=O)NC3CCCCC3)cc2)cn1 [Glipizide (Glucotrol)]
radioprotection in dose response, senescence assay ([3]; dose response, 15 Gy): variable protection | radioprotection in dose response, glutathione assay ([1]; dose response, 15 Gy): protection only at higher concentrations | Estimated EC50, Glutathione ([1]; 15 Gy): 4000 nM

CC1COc2c(N3CCN(C)CC3)c(F)cc3c(=O)c(C(=O)O)cn1c23 (stereo not drawn) [ofloxacin]
hit in the drug screen [1]: not hits | radioprotection of lymphocytes [2]: radioprotectors

Meropenem
radioprotection in dose response, senescence assay ([3]; dose response, 15 Gy): only partial protection | double hit in the drug screen ([3]; glutathione and senescence assays, 100 μM, statistically similar to 0 Gy): double hits | concentration range of radioprotection, glutathione assay ([1]; dose response, 15 Gy): 0.1 to 100 µM | Estimated EC50, Glutathione ([1]; 15 Gy): 100 nM

COc1c(N2C[C@@H]3CCCN[C@@H]3C2)c(F)cc2c(=O)c(C(=O)O)cn(C3CC3)c12 [moxifloxacin]
radioprotection of lymphocytes [2]: radioprotectors

COC(=O)Nc1nc2cc(C(=O)c3ccc(F)cc3)ccc2[nH]1 [Flubendazole (Flutelmium)]
Senescence normalized mean intensity ([3]; 15 Gy): 1.444 | Glutathione normalized mean intensity ([1]; 15 Gy, 4 days post-radiation): 1.065

C[C@]12C=CC(=O)C=C1CC[C@H]1[C@@H]3C[C@@H](O)[C@](O)(C(=O)CO)[C@@]3(C)C[C@H](O)[C@@]12F [Triamcinolone (Aristocort)]
Senescence normalized mean intensity ([3]; 15 Gy): 0.9883 | Glutathione normalized mean intensity ([1]; 15 Gy, 4 days post-radiation): 1.061

CN(C)CCC(c1ccc(Cl)cc1)c1ccccn1 (stereo not drawn) [Chlorpheniramine Maleate]
Senescence normalized mean intensity ([3]; 15 Gy): 1.308 | Glutathione normalized mean intensity ([1]; 15 Gy, 4 days post-radiation): 1.145

CC/C(=C(/CC)c1ccc(O)cc1)c1ccc(O)cc1 [Diethylstilbestrol (Stilbestrol)]
concentration range of radioprotection, senescence assay ([3]; dose response, 15 Gy): 50 to 100 µM | Estimated EC50, Senescence ([3]; nonlinear fit in Prism of dose response curves, 15 Gy): 37700 nM | Senescence normalized mean intensity ([3]; 15 Gy): 0.8812 | concentration range of radioprotection, glutathione assay ([1]; dose response, 15 Gy): 10 to 100 µM | Glutathione normalized mean intensity ([1]; 15 Gy, 4 days post-radiation): 0.8894 | Estimated EC50, Glutathione ([1]; 15 Gy): 700 nM

Cc1cnc(C(=O)O)c[n+]1[O-] [Acipimox]
Senescence normalized mean intensity ([3]; 15 Gy): 1.379 | Glutathione normalized mean intensity ([1]; 15 Gy, 4 days post-radiation): 1.03

O=NN(CCCl)C(=O)NC1CCCCC1 [Lomustine (CeeNU)]
Senescence normalized mean intensity ([3]; 15 Gy): 1.023 | Glutathione normalized mean intensity ([1]; 15 Gy, 4 days post-radiation): 0.9042

CN1CCC[C@@H]1CCO[C@](C)(c1ccccc1)c1ccc(Cl)cc1 [Clemastine Fumarate]
Senescence normalized mean intensity ([3]; 15 Gy): 1.237 | Glutathione normalized mean intensity ([1]; 15 Gy, 4 days post-radiation): 1.106

CC1(C)CC(O)CC(C)(C)N1[O] [Tempol, 4-hydroxy-TEMPO]
Senescence (radioprotection) [3]: + | inhibition at 1000 µM [3, 4]: 75% | inhibition at 4000 µM [3, 4]: 91% | Glutathione (radioprotection) [1]: + | prevention of radiation-induced reduction of glutathione levels [1]: strong radioprotection

COC(=O)C1=C(C)NC(C)=C(C(=O)OC)C1c1ccccc1[N+](=O)[O-] [Nifedipine (Adalat)]
Senescence normalized mean intensity ([3]; 15 Gy): 0.9725 | Glutathione normalized mean intensity ([1]; 15 Gy, 4 days post-radiation): 0.9216

CC(=O)N[C@@H](CS)C(=O)O [N-acetylcysteine]
protection against radiation-induced senescence ([3]; 10 mM): protective | inhibition at 1000 µM ([3]; Mus musculus, light or radiation study, 120 h, 1 mM, versus untreated, irradiated controls, read-out: reduction in senescence): 83% | inhibition at 4000 µM ([3]; Mus musculus, light or radiation study, 120 h, 4 mM, versus untreated, irradiated controls, read-out: reduction in senescence): 57% | inhibition at 10000 µM ([3]; Mus musculus, light or radiation study, 120 h, 10 mM, versus untreated, irradiated controls, read-out: reduction in senescence): 82% | prevention of radiation-induced reduction of glutathione levels ([1]; 1 mM, 15 Gy, 4 days post-radiation): no improvement in glutathione levels | prevention of radiation-induced reduction of glutathione levels ([1]; 4 mM, 15 Gy, 4 days post-radiation): no improvement in glutathione levels | radioprotection using the glutathione assay ([1]; 10 mM): partial radioprotection | glutathione levels rescued ([1]; 10 mM, 15 Gy): 56%
